In PubChem BioAssay (NCI):
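The compound was tested at five concentrations on cells cultured in 96-well plates, with a 48-hour exposure period. Definition used: TGI = concentration required for complete inhibition of growth.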

Legend:
Assay in all cases: DTP human tumour cell line panel, 48 h
SF-295 CNS = test system: SF-295 CNS
SK-MEL-28 melanoma = test system: SK-MEL-28 melanoma
MDA-N = test system: MDA-N
BT-549 breast = test system: BT-549 breast
SK-MEL-2 melanoma = test system: SK-MEL-2 melanoma
PC-3 prostate = test system: PC-3 prostate
SK-OV-3 ovarian = test system: SK-OV-3 ovarian
NCI-H226 lung = test system: NCI-H226 lung
UO-31 renal = test system: UO-31 renal
NCI-H522 lung = test system: NCI-H522 lung
EKVX NSCLC = test system: EKVX NSCLC
SR leukemia = test system: SR leukemia
SNB-75 CNS = test system: SNB-75 CNS
OVCAR-5 ovarian = test system: OVCAR-5 ovarian
UACC-62 melanoma = test system: UACC-62 melanoma
K-562 leukemia = test system: K-562 leukemia
786-0 renal = test system: 786-0 renal
RXF 393 renal = test system: RXF 393 renal
OVCAR-3 ovarian = test system: OVCAR-3 ovarian
M14 melanoma = test system: M14 melanoma
SNB-19 CNS = test system: SNB-19 CNS
LOX IMVI melanoma = test system: LOX IMVI melanoma
SF-268 CNS = test system: SF-268 CNS
SW-620 colon = test system: SW-620 colon
TK-10 renal = test system: TK-10 renal
MALME-3M melanoma = test system: MALME-3M melanoma
NCI-H23 lung = test system: NCI-H23 lung
MOLT-4 leukemia = test system: MOLT-4 leukemia
MDA-MB-231 breast = test system: MDA-MB-231 breast
UACC-257 melanoma = test system: UACC-257 melanoma
T-47D breast = test system: T-47D breast
MDA-MB-435 = test system: MDA-MB-435
SN12C renal = test system: SN12C renal
NCI/ADR-RES ovarian = test system: NCI/ADR-RES ovarian
OVCAR-8 ovarian = test system: OVCAR-8 ovarian
ACHN renal = test system: ACHN renal
NCI-H460 lung = test system: NCI-H460 lung
KM12 colon = test system: KM12 colon
A549 NSCLC = test system: A549 NSCLC
MCF7 breast = test system: MCF7 breast
HCT-15 colon = test system: HCT-15 colon
DU-145 prostate = test system: DU-145 prostate
COLO 205 colon = test system: COLO 205 colon
SK-MEL-5 melanoma = test system: SK-MEL-5 melanoma
HOP-62 NSCLC = test system: HOP-62 NSCLC
CCRF-CEM leukemia = test system: CCRF-CEM leukemia
HS 578T breast = test system: HS 578T breast
HT29 colon = test system: HT29 colon
HOP-92 NSCLC = test system: HOP-92 NSCLC
U251 CNS = test system: U251 CNS
HCT-116 colon = test system: HCT-116 colon
SF-539 CNS = test system: SF-539 CNS
OVCAR-4 ovarian = test system: OVCAR-4 ovarian
HL-60(TB) leukemia = test system: HL-60(TB) leukemia
IGROV1 ovarian = test system: IGROV1 ovarian
HCC-2998 colon = test system: HCC-2998 colon
CAKI-1 renal = test system: CAKI-1 renal

`CC(=O)Nc1ccc(N2C(=O)CS(=O)(=O)C2c2cccc(Oc3ccccc3)c2)cc1` (stereo unspecified) gave a TGI (SF-295 CNS) of 36.7 µM, a TGI (SK-MEL-28 melanoma) of 48.3 µM and a TGI (MDA-N) of 32.5 µM. The TGI (BT-549 breast) was 32 µM, the TGI (SK-MEL-2 melanoma) was 37.3 µM and the TGI (PC-3 prostate) was 42.8 µM. It also gave a TGI (SK-OV-3 ovarian) of 83.1 µM, a TGI (NCI-H226 lung) of 35.8 µM and a TGI (UO-31 renal) of 33.8 µM. The TGI (NCI-H522 lung) was 41.9 µM, the TGI (EKVX NSCLC) was 35.5 µM and the TGI (SR leukemia) was 48.7 µM. For the same compound, the TGI (SNB-75 CNS) was 55.2 µM, the TGI (OVCAR-5 ovarian) was 37.2 µM and the TGI (UACC-62 melanoma) was 27.9 µM. For the same compound, the TGI (K-562 leukemia) was 55 µM, the TGI (786-0 renal) was 35.7 µM and the TGI (RXF 393 renal) was 39.7 µM. It also gave a TGI (OVCAR-3 ovarian) of 38.2 µM, a TGI (M14 melanoma) of 33.9 µM and a TGI (SNB-19 CNS) of 36.2 µM. It also gave a TGI (LOX IMVI melanoma) of 35.5 µM, a TGI (SF-268 CNS) of 41.7 µM and a TGI (SW-620 colon) of 80.5 µM. It also gave a TGI (TK-10 renal) of 41.7 µM, a TGI (MALME-3M melanoma) of 38.8 µM and a TGI (NCI-H23 lung) of 43.5 µM. For the same compound, the TGI (MOLT-4 leukemia) was 62.9 µM, the TGI (MDA-MB-231 breast) was 36 µM and the TGI (UACC-257 melanoma) was 33.8 µM. It also gave a TGI (T-47D breast) of 58.3 µM, a TGI (MDA-MB-435) of 48.5 µM and a TGI (SN12C renal) of 29.6 µM. For the same compound, the TGI (NCI/ADR-RES ovarian) was 48.7 µM, the TGI (OVCAR-8 ovarian) was 41.6 µM and the TGI (ACHN renal) was 36.3 µM. For the same compound, the TGI (NCI-H460 lung) was 34.7 µM, the TGI (KM12 colon) was 47.2 µM and the TGI (A549 NSCLC) was 48.8 µM. It also gave a TGI (MCF7 breast) of 35.9 µM, a TGI (HCT-15 colon) of 39.5 µM and a TGI (DU-145 prostate) greater than 100 µM. It also gave a TGI (COLO 205 colon) of 35.7 µM, a TGI (SK-MEL-5 melanoma) of 28.7 µM and a TGI (HOP-62 NSCLC) of 38.9 µM. It also gave a TGI (CCRF-CEM leukemia) greater than 100 µM, a TGI (HS 578T breast) of 79.9 µM and a TGI (HT29 colon) of 37.7 µM. The TGI (HOP-92 NSCLC) was 29.5 µM, the TGI (U251 CNS) was 32.6 µM and the TGI (HCT-116 colon) was 35.2 µM. The TGI (SF-539 CNS) was 36.4 µM, the TGI (OVCAR-4 ovarian) was 38.9 µM and the TGI (HL-60(TB) leukemia) was 84.8 µM.
With `CCSCC(=O)N1CCc2c([nH]c3ccccc23)C1=O` the TGI (SF-295 CNS) was greater than 100 µM, the TGI (SK-MEL-28 melanoma) was greater than 100 µM and the TGI (MDA-N) was greater than 100 µM. It also gave a TGI (IGROV1 ovarian) greater than 100 µM, a TGI (BT-549 breast) greater than 100 µM and a TGI (SK-MEL-2 melanoma) greater than 100 µM. For the same compound, the TGI (PC-3 prostate) was greater than 100 µM, the TGI (SK-OV-3 ovarian) was greater than 100 µM and the TGI (NCI-H226 lung) was greater than 100 µM. For the same compound, the TGI (UO-31 renal) was greater than 100 µM, the TGI (NCI-H522 lung) was greater than 100 µM and the TGI (EKVX NSCLC) was greater than 100 µM. It also gave a TGI (SR leukemia) greater than 100 µM, a TGI (SNB-75 CNS) greater than 100 µM and a TGI (OVCAR-5 ovarian) greater than 100 µM. The TGI (UACC-62 melanoma) was greater than 100 µM, the TGI (K-562 leukemia) was greater than 100 µM and the TGI (786-0 renal) was greater than 100 µM. For the same compound, the TGI (RXF 393 renal) was greater than 100 µM, the TGI (OVCAR-3 ovarian) was greater than 100 µM and the TGI (M14 melanoma) was greater than 100 µM. It also gave a TGI (SNB-19 CNS) greater than 100 µM, a TGI (LOX IMVI melanoma) greater than 100 µM and a TGI (SF-268 CNS) greater than 100 µM. It also gave a TGI (SW-620 colon) greater than 100 µM, a TGI (TK-10 renal) greater than 100 µM and a TGI (MALME-3M melanoma) greater than 100 µM. For the same compound, the TGI (NCI-H23 lung) was greater than 100 µM, the TGI (MOLT-4 leukemia) was greater than 100 µM and the TGI (MDA-MB-231 breast) was greater than 100 µM. For the same compound, the TGI (UACC-257 melanoma) was greater than 100 µM, the TGI (T-47D breast) was greater than 100 µM and the TGI (MDA-MB-435) was greater than 100 µM. The TGI (SN12C renal) was greater than 100 µM, the TGI (NCI/ADR-RES ovarian) was greater than 100 µM and the TGI (OVCAR-8 ovarian) was greater than 100 µM. The TGI (ACHN renal) was greater than 100 µM, the TGI (NCI-H460 lung) was greater than 100 µM and the TGI (KM12 colon) was greater than 100 µM. It also gave a TGI (A549 NSCLC) greater than 100 µM, a TGI (MCF7 breast) greater than 100 µM and a TGI (HCT-15 colon) greater than 100 µM. It also gave a TGI (DU-145 prostate) greater than 100 µM, a TGI (COLO 205 colon) greater than 100 µM and a TGI (SK-MEL-5 melanoma) greater than 100 µM. For the same compound, the TGI (HOP-62 NSCLC) was greater than 100 µM, the TGI (CCRF-CEM leukemia) was greater than 100 µM and the TGI (HS 578T breast) was greater than 100 µM. For the same compound, the TGI (HT29 colon) was greater than 100 µM, the TGI (HOP-92 NSCLC) was 92.8 µM and the TGI (U251 CNS) was greater than 100 µM. It also gave a TGI (HCT-116 colon) greater than 100 µM, a TGI (HCC-2998 colon) greater than 100 µM and a TGI (SF-539 CNS) greater than 100 µM. For the same compound, the TGI (OVCAR-4 ovarian) was greater than 100 µM, the TGI (CAKI-1 renal) was greater than 100 µM and the TGI (HL-60(TB) leukemia) was greater than 100 µM.
